Source: patent publication US11311598B2, “Peptides and analogs for use in the treatment of oral mucositis” (Soligenix, Inc., priority 2013, dated 2022)
Where no end group is shown, it is not given here.

Key:
[1] = tested on: human normal blood cells; experiment: proliferation of human normal blood cells in vitro; assay type: cell-based
[2] = tested on: S. aureus (Catalog No. 29213, ATCC); experiment: S. aureus thigh abscess infection model in neutropenic mice; assay type: in vivo, mouse; settings: neutropenic female Swiss albino mice, 50 mg/kg IM 24 h prior to infection; 24 h after infection
Experimental: Female Swiss albino mice (N=8/group) were rendered neutropenic by treatment with Cp (100 mg/kg), 3 and 1 days before IM infection with S. aureus (Catalog No. 29213, ATCC, ^˜9.5×10^5 cfu). RIVPA (SEQ ID NO. 5) (50 mg/kg) was administered IM 24 h prior to infection and vancomycin (100 mg/kg) was administered SC at 1, 6 and 18 h after infection. The number of bacterial cfu present in the infected thigh was assessed 24 h after initiation of infection in each group.

[3] = tested on: healthy volunteers; experiment: Phase 1 study in healthy volunteers, safety (SAD and MAD); assay type: in vivo, human
Description: Clinical experience with RIVPA (SEQ ID NO. 5) was obtained in a Phase 1 Study. The primary objective of the study was to determine the maximum tolerated dose (MTD) of single and repeat ascending doses of RIVPA (SEQ ID NO. 5) injectable solution following IV administration in healthy volunteers. The secondary objectives of this study included the assessment of the dose limiting toxicity (DLT), safety, PK and pharmacodynamic (PD) profiles of RIVPA (SEQ ID NO. 5) after single and repeated ascending IV doses of RIVPA (SEQ ID NO. 5). The study was divided into 2 phases: a single-ascending dose (SAD) phase and a multiple-ascending dose (MAD) phase.
Single IV doses of RIVPA (SEQ ID NO. 5) were well tolerated up to the maximum tested (8 mg/kg) and daily IV doses were well tolerated up to the maximum tested (6.5 mg/kg for 7 days).
The most frequently reported TEAEs (observed in more than one subject who received RIVPA (SEQ ID NO. 5) and in a higher proportion (%) than placebo subjects) were study treatment procedure-related events (General Disorders and Administration Site Conditions) such as vessel puncture site haematoma, vessel puncture site reaction and vessel puncture site pain. All vessel puncture-related events were mild and determined to be unrelated to study treatment by the QI. The second most frequently reported TEAEs were Nervous System Disorders, specifically headache and dizziness; these events were only mild to moderate. All other TEAEs were reported by only 1 subject at any given dose level (maximum of 3 dose levels).
The incidence of “possibly-related” events was also higher in the 2 highest dose levels. However, due to the small sample sizes (4 subjects received active treatment in each cohort), it was not possible to conclude whether the results definitely represented a dose-response. The majority of the TEAEs were not related to study treatment and were mild in severity with only one event reported as moderate. The most frequently reported TEAEs for subjects who received RIVPA (SEQ ID NO. 5) were General Disorders and Administration Site Conditions (i.e., procedure-related events) such as vessel puncture site haematoma, vessel puncture site reaction, and vessel puncture site pain. All vessel puncture-related events were mild and judged to be unrelated to treatment. Increased alanine aminotransferase (ALT) and back pain were reported by 3 (15.0%) subjects who received RIVPA (SEQ ID NO. 5) and these events were observed by only one (10.0%) subject who received the placebo.

[4] = tested on: cynomolgus monkey; experiment: cardiovascular (CV)/pulmonary study in cynomolgus monkey; assay type: in vivo
Description: In summary, the major toxicological finding was an acute-onset respiratory depression, accompanied by labored breathing, recumbency and transient decreased activity.

[5] = tested on: cynomolgus monkeys; experiment: cynomolgus monkey IV toxicity studies (pilot, GLP 14-day); assay type: in vivo; settings: for occurrence of acute toxicity (respiratory depression): cynomolgus monkey
Experimental: Two pilot and 2 definitive repeat-dose toxicity studies were conducted with RIVPA (SEQ ID NO. 5) in mice and cynomolgus monkeys using the intravenous (IV; slow bolus) route of administration. All studies were conducted by LAB Research Inc., Canada.
These resolved within a few minutes without detectable residual effects.
RIVPA (SEQ ID NO. 5) at 20, 80, 160 mg/kg/day was given IV to cynomolgus monkeys for 14 days. […] In all cases, these clinical signs resolved within a few minutes. […] A dose level of 80 mg/kg/day was considered to be the No-Observed-Adverse-Effect-Level (NOAEL) for this study.
Overall, the NOAEL is considered to be 80 mg/kg/day for cynomolgus monkeys since transient clinical signs were limited to a single study and occurred in only 2 instances of the 98 administrations of the drug at this dose level.
The observed respiratory depression occurred at different dose levels in different species, and was not predicted by allometric scaling. In particular, the mouse appeared to be the most sensitive species with acute toxicity occurring rarely at 60 mg/kg (HED: ^˜5 mg/kg) and commonly at 90 mg/kg (HED: ^˜7 mg/kg). In contrast in NHP (cynomologus monkey), acute toxicity occurred occasionally at 160 mg/kg (HED: ^˜50 mg/kg) and consistently at 240 mg/kg (HED: ^˜78 mg/kg).

[6] = metabolism and excretion; settings: in vivo
[7] = multiple ascending dose phase, subjects who received RIVPA

RIVPA-NH2 [RIVPA (SEQ ID NO. 5), RIVPA]
proliferation of normal blood cells [1]: did not promote the proliferation
bacterial load in the infected thigh [2]: significantly reduced
vital sign measurements, clinical laboratory or ECG results versus placebo ([3]; Phase 1): No safety concerns or significant differences
deaths and serious Adverse Events ([3]; Phase 1, SAD and MAD): no deaths and no clinically significant, severe, or serious Adverse Events
dose limiting toxicities (DLTs) ([3]; Phase 1, SAD and MAD): no dose limiting toxicities
MTD ([3]; either phase of the trial): not reached
daily IV doses well tolerated up to the maximum tested ([3]; healthy volunteers, daily for 7 days): ≤ 6.5 mg/kg
single IV doses well tolerated up to the maximum tested ([3]; healthy volunteers, single-ascending dose phase): ≤ 8 mg/kg
incidence of TEAEs ([3]; multiple ascending dose phase, 4.5 and 6.5 mg/kg/day): highest incidence
Increased alanine aminotransferase (ALT) [3, 7]: 3 (15.0%) subjects
back pain [3, 7]: 3 (15.0%) subjects
incidence of TEAEs ([3]; single ascending dose phase): not dose-related
clinical signs ([4]; 80 mg/kg, during dosing): transient drooping eye lids and prostration
clinical signs ([4]; 220 mg/kg): transient, severe clinical signs
respiratory/cardiovascular effects and mortality ([4]; 220 mg/kg, 1 animal): marked reduction in respiratory rate followed by bradycardia, hypotension and death
respiratory effects ([4]; 20 or 80 mg/kg): No respiratory effects
cardiac toxicity or QT prolongation ([4]; nonhuman primates): no cardiac toxicity or QT prolongation
cardiovascular effects and ECG parameters ([4]; single IV doses of 20 or 80 mg/kg): no cardiovascular effects or changes in electrocardiogram (ECG) parameters
HED of acutely toxic dose ([5]; NHP 160 mg/kg): ~50 mg/kg
HED of acutely toxic dose ([5]; NHP 240 mg/kg): ~78 mg/kg
immune-related organ weights, histopathology, hematology and clinical chemistry ([5]; NHP 14-day toxicity study): no changes were observed
clinical signs ([5]; NHP pilot studies, 90 (1 animal), 180 (both animals) and 220 (1 animal) mg/kg, during and shortly after dosing): mild clinical signs
T-cell, B-cell or NK-cell counts ([5]; NHP, after 14 days of intravenous dosing): no effect
occurrence of acute toxicity (respiratory depression) ([5]; 160 mg/kg): occasionally
occurrence of acute toxicity (respiratory depression) ([5]; 240 mg/kg): consistently
clinical signs ([5]; cynomolgus monkeys, 160 mg/kg/day IV for 14 days): Transient decreased activity and partially closed eyes
toxicity ([5]; cynomolgus monkeys, 20 and 80 mg/kg/day IV for 14 days): did not result in any evidence of toxicity
primary metabolism [6]: proteases throughout body tissues
role of urine, feces and bile excretion in clearance [6]: very minor role
